Max and EC50 ratio data for 24 molecules are collected here from ChEMBL document CHEMBL1159131, “Structural modifications of 6-naphthalene-2-carboxylate retinoids” (Bioorg Med Chem Lett, 1996).

Structures are written as SMILES. Calls of active or inactive are those of the source. The rule behind the calls is not given here.

The target in assay [1] is T1, Retinoic acid receptor beta (Homo sapiens) (UniProt P10826).
T1 sequence (whole entry): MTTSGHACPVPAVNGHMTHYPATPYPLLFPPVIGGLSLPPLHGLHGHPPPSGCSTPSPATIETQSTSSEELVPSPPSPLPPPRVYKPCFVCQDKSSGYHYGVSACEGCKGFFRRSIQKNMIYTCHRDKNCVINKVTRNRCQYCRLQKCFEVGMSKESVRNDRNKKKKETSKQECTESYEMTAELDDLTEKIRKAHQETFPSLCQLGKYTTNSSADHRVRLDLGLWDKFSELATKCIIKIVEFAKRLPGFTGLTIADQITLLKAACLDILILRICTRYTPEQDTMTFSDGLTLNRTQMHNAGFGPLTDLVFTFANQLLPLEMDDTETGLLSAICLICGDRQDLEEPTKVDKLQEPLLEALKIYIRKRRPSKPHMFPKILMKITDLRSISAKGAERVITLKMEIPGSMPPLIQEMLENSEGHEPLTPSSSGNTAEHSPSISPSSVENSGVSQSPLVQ
Kind of assay: Maximum retinoic acid receptor (RAR)-beta transactivation activity relative to retinoic acid at 10e-6 M.

Assay [2] has as its target T1, Retinoic acid receptor beta (Homo sapiens). In words: Transactivation activity at retinoic acid receptor beta.
Assay [3] addresses T2, Retinoic acid receptor alpha (Homo sapiens) (UniProt P10276).
T2 sequence (whole entry): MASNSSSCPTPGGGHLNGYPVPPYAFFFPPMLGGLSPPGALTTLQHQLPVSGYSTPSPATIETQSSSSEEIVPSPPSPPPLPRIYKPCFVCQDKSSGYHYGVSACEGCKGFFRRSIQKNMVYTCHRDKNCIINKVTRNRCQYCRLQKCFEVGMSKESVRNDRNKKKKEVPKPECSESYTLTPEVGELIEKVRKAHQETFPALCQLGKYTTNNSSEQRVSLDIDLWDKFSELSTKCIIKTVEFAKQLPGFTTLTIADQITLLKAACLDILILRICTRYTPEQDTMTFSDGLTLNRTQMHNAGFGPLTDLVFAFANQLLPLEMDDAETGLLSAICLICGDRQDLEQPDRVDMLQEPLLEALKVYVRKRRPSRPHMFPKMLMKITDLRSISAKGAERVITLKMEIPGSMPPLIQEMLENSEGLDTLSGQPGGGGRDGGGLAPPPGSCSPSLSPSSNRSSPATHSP
In words: Maximum retinoic acid receptor (RAR)-alpha transactivation activity relative to retinoic acid at 10e-6 M.

The target in assay [4] is T2, Retinoic acid receptor alpha (Homo sapiens). In words: Transcriptional activation activity against retinoic acid receptor RAR alpha.
The target is the same in assay [5]. Kind of assay: Transcriptional activation activity against retinoic acid receptor RAR alpha; Not active.
For assay [6], the target named is T1, Retinoic acid receptor beta (Homo sapiens). Kind of assay: Transcriptional activation activity against retinoic acid receptor RAR beta; Not active.
Assay [7] addresses T3, Retinoic acid receptor gamma (Homo sapiens) (UniProt P13631).
T3 sequence (whole entry): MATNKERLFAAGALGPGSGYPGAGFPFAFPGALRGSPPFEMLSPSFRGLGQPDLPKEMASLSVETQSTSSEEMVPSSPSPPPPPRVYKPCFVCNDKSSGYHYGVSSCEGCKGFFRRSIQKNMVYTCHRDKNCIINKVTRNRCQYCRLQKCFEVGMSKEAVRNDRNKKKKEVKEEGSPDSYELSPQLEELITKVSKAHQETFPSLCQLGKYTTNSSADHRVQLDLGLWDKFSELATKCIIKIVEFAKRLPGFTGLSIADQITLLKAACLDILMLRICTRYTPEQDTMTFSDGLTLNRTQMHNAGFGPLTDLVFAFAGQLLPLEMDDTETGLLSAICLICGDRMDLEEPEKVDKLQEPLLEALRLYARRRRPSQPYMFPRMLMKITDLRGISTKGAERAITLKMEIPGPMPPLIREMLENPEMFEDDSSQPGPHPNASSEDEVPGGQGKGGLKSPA
Kind of assay: Transcriptional activation activity against retinoic acid receptor RAR gamma; Not active.

Take `CC1(C)CCC(C)(C)c2c(F)cc(C(=O)c3ccc4cc(C(=O)O)ccc4c3)cc21`: the figures for the Max in assay [1] and in assay [3] were 81% and 63%, respectively. For the same molecule, the figures for the EC50 ratio in assay [2] and in assay [4] were 4 and 10, respectively.

For `CC1(C)CCC(C)(C)c2cc(C(=O)/C=C/c3ccc(C(=O)O)cc3)ccc21`, the EC50 ratio is 1.2 in assay [2] and 0.7 in assay [4].

`CC1(C)CCC(C)(C)c2c1ccc(C(O)c1ccc3cc(C(=O)O)ccc3c1)c2F` (stereo unspecified): the Max in assay [1] turned out to be 74%; in assay [3], 0%. Also, the EC50 ratio in assay [2] came out at 133. Besides, the EC50 ratio result in assay [5] is “inactive”.

Turning to `CC1(C)CCC(C)(C)c2cc(Sc3ccc4cc(C(=O)O)ccc4c3)ccc21`, the Max worked out at 88% in assay [1] and 45% in assay [3]. The EC50 ratio in assay [2] was 10; in assay [4], 25.

Consider `COc1c(C(=O)c2ccc3cc(C(=O)O)ccc3c2)ccc2c1C(C)(C)CCC2(C)C`, for which the Max in assay [1] and in assay [3] was 0% in each case. The EC50 ratio result in assay [6], in assay [5] and in assay [7] was “inactive” throughout.

For `Cc1cc2c(cc1C(O)c1ccc3cc(C(=O)O)ccc3c1)C(C)(C)CCC2(C)C` (stereo unspecified), the Max was determined as 96% in assay [1] and 0% in assay [3]. Further, in assay [2], the EC50 ratio was 100. Also, the EC50 ratio entry in assay [5] was “inactive”.

As for `CC1(C)CCC(C)(C)c2cc(S(=O)(=O)/C=C/c3ccc(C(=O)O)cc3)ccc21`, the Max in assay [1] was found to be 35%; in assay [3] it was 0%. For the same molecule, the EC50 ratio in assay [2] stood at 200. Also, in assay [5], the EC50 ratio entry is “inactive”.

Consider `CC1(C)CCC(C)(C)c2cc(C(=O)c3ccc4cc(C(=O)O)ccc4c3O)ccc21`, for which the Max in assay [1] and in assay [3] was 0% each time. Besides, the EC50 ratio result in assay [6], in assay [5] and in assay [7] was “inactive” in each case.

`CC1(C)CCC(C)(C)c2cc(S(=O)(=O)c3ccc4cc(C(=O)O)ccc4c3)ccc21`: the Max in assay [1] amounted to 32%; in assay [3], 0%. In addition, in assay [2], the EC50 ratio amounted to 133. Moreover, in assay [5], the EC50 ratio result is “inactive”.

For `CC1(C)CCC(C)(C)c2cc(C(=O)c3ccc4cc(C(=O)O)ccc4c3)c(F)cc21`, the figures for the Max in assay [1] and in assay [3] were 81% and 34%, respectively. Moreover, the EC50 ratio in assay [2] was 15; in assay [4], 25.

As for `CC1(C)CCC(C)(C)c2cc([S+]([O-])/C=C/c3ccc(C(=O)O)cc3)ccc21` (stereo unspecified), the Max in assay [1] was found to be 96%; in assay [3], 42%. For the same molecule, the results for the EC50 ratio in assay [2] and in assay [4] were 40 and 38, respectively.

Regarding `CC1(C)CCC(C)(C)c2cc(S/C=C/c3ccc(C(=O)O)cc3)ccc21`, the Max in assay [1] was 158%; in assay [3], 118%. For the same molecule, the figures for the EC50 ratio in assay [2] and in assay [4] were 0.8 and 1.3, respectively.

On to `CC1(C)CCC(C)(C)c2c1cc(O)c(C(=O)c1ccc3cc(C(=O)O)ccc3c1)c2F`, for which the values for the Max in assay [1] and in assay [3] were 87% and 46%, respectively. Further, the EC50 ratio in assay [2] stood at 6.7; in assay [4], 100.

For the molecule `CC1(C)CCC(C)(C)c2cc([S+]([O-])c3ccc4cc(C(=O)O)ccc4c3)ccc21` (stereo unspecified), the Max in assay [1] came out at 52%; in assay [3], 0%. Besides, in assay [2], the EC50 ratio is 167. Besides, in assay [5], the EC50 ratio result is “inactive”.

In the case of `CC1(C)CCC(C)(C)c2cc(C(O)c3ccc4cc(C(=O)O)ccc4c3)c(O)cc21` (stereo unspecified), the Max in assay [1] amounted to 18%; in assay [3], 0%. Moreover, the EC50 ratio result in assay [6] and in assay [5] was “inactive” throughout.

Turning to `CC1(C)CCC(C)(C)c2c(F)cc(C(O)c3ccc4cc(C(=O)O)ccc4c3)cc21` (stereo unspecified), the Max in assay [1] and in assay [3] was 0% throughout. Moreover, the EC50 ratio entry in assay [6], in assay [5] and in assay [7] was “inactive” in each case.

Take `COc1c(C(=O)c2ccc3c(c2)C(C)(C)CCC3(C)C)ccc2cc(C(=O)O)ccc12`: the Max in assay [1] and in assay [3] was 0% each time. In addition, the EC50 ratio entry in assay [6], in assay [5] and in assay [7] was “inactive” throughout.

As to `COc1cc2c(cc1C(=O)c1ccc3cc(C(=O)O)ccc3c1)C(C)(C)CCC2(C)C`, the Max was 61% in assay [1] and 23% in assay [3]. Further, the EC50 ratio in assay [2] was 14; in assay [4], 8.

For the molecule `CC1(C)CCC(C)(C)c2cc(C(O)c3ccc4cc(C(=O)O)ccc4c3)ccc21` (stereo unspecified), the Max was determined as 77% in assay [1] and 0% in assay [3].

`CC1(C)CCC(C)(C)c2cc(Nc3ccc4cc(C(=O)O)ccc4c3)ccc21`: the Max turned out to be 92% in assay [1] and 27% in assay [3]. Further, the EC50 ratio in assay [2] amounted to 17; in assay [4] it was 25.

As for `Cc1cc2c(cc1C(=O)c1ccc3cc(C(=O)O)ccc3c1)C(C)(C)CCC2(C)C`, the Max in assay [1] turned out to be 81%; in assay [3], 26%. In addition, the EC50 ratio in assay [2] and in assay [4] was 25 throughout.

With `CC1(C)CCC(C)(C)c2cc(C(O)c3ccc4cc(C(=O)O)ccc4c3)c(F)cc21` (stereo unspecified), the Max in assay [1] is 30%; in assay [3], 0%. Moreover, the EC50 ratio in assay [2] was found to be 133. The EC50 ratio entry in assay [5] was “inactive”.

For the molecule `CC1(C)CCC(C)(C)c2cc(C(=O)c3ccc4cc(C(=O)O)ccc4c3)c(O)cc21`, the figures for the Max in assay [1] and in assay [3] were 76% and 44%, respectively. For the same molecule, the values for the EC50 ratio in assay [2] and in assay [4] were 7.5 and 25, respectively.

In the case of `CC1(C)CCC(C)(C)c2cc(Oc3ccc4cc(C(=O)O)ccc4c3)ccc21`, the Max in assay [1] amounted to 120%; in assay [3], 56%. Further, the figures for the EC50 ratio in assay [2] and in assay [4] were 20 and 63, respectively.
